{"source": "ChEMBL document CHEMBL1149848", "about": "“Prenylated flavonoid derivatives from the bark of Erythrina addisoniae” (J Nat Prod, 2008)", "type_in_all_cases": "functional, cell-based", "key": {"[1]": {"test": "Cytotoxicity against rat H4IIE cells after 24 hrs by MTT assay"}, "H4IIE [2]": {"system": "H4IIE", "test": "Cytotoxicity against rat H4IIE cells assessed as nuclear fragmentation after 24 hrs by Hoechst staining"}, "H4IIE [3]": {"system": "H4IIE", "test": "Cytotoxicity against rat H4IIE cells assessed as caspase-3/7 activation after 24 hrs by Apo-ONE assay"}}, "note": "The source made the active and inactive calls. No cut-off for these calls is given here.", "data": [{"smiles": "COc1c(CC=C(C)C)cc([C@@H]2CC(=O)c3c(O)cc(O)cc3O2)cc1CC=C(C)C", "values": [{"measurement": "IC50", "setting": "[1]", "value": 5, "unit": "µM"}]}, {"smiles": "C=C(C)C(O)Cc1cc([C@@H]2CC(=O)c3c(O)cc(O)cc3O2)cc(CC=C(C)C)c1O", "note": "(some centres not stated) [ABYSSINOFLAVANONE VII]", "values": [{"measurement": "Activity", "setting": "H4IIE [2]", "value": "Active"}, {"measurement": "Activity", "setting": "H4IIE [3]", "value": "Active"}, {"measurement": "IC50", "setting": "[1]", "value": 3.5, "unit": "µM"}]}, {"smiles": "CC(C)=CCc1cc([C@@H]2CC(=O)c3ccc(O)cc3O2)cc(CC=C(C)C)c1O", "note": "[ABYSSINONE IV]", "values": [{"measurement": "IC50", "setting": "[1]", "value": 15, "unit": "µM"}]}, {"smiles": "O=C1C[C@@H](c2ccc(O)cc2)Oc2cc(O)ccc21", "note": "[LIQUIRTIGENIN]", "values": [{"measurement": "IC50", "setting": "[1]", "value": "> 100", "unit": "µM"}]}, {"smiles": "O=C1C[C@@H](c2ccc(O)cc2)Oc2cc(O)cc(O)c21", "note": "[NARINGENIN]", "values": [{"measurement": "IC50", "setting": "[1]", "value": "> 100", "unit": "µM"}]}]}
